According to PubChem BioAssay AID248 (DTP/NCI, 2004):
Several values for one entry are separate records, joined by “and”; a condition that tells them apart may be missing. Equal entries are not always repeated. Inconclusive results and toxic doses are left out. Rule as the data show it: active = T/C of 150% or more; inactive = T/C below 125%.

Test system: L1210 leukemia ip in BDF1 mice, survival T/C
Experiment: NCI In Vivo Anticancer Drug Screen. Data for tumor model L1210 Leukemia (intraperitoneal) in B6D2F1 (BDF1) mice
Conditions: endpoint: mean survival time, higher = longer survival
Summary of the method: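 Tumor cells were implanted, animals were treated, and survival was followed. The result divides the treated measurement by the vehicle-control measurement.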

Measured: T/C

CC1(C)C(=O)C(O)=C[C@@]2(C)C1=CC[C@H]1[C@@H]3CC[C@H](O)[C@@]3(C)CC[C@@H]12
inactive: dose: 100.0 mg/kg/injection, schedule: Q01DX001 (sc), vehicle: steriod suspending solution 97 % of control | dose: 200.0 mg/kg/injection, schedule: Q01DX001 (sc), vehicle: steriod suspending solution 104 % of control | dose: 400.0 mg/kg/injection, schedule: Q01DX001 (sc), vehicle: steriod suspending solution 97 % of control

O=C(NCc1ccccc1)C(Cc1ccccc1)Cc1ccccc1
inactive: dose: 100.0 mg/kg/injection, schedule: Q01DX001 (ip), vehicle: carboxymethylcellulose (CMC) 93 % of control | dose: 200.0 mg/kg/injection, schedule: Q01DX001 (ip), vehicle: carboxymethylcellulose (CMC) 95 % of control | dose: 400.0 mg/kg/injection, schedule: Q01DX001 (ip), vehicle: carboxymethylcellulose (CMC) 98 % of control

CCN1C(=O)C(CC)(Cc2ccccc2)C(=O)NC1=S (configuration not stated)
inactive: dose: 75.0 mg/kg/injection, schedule: Q01DX001 (ip), vehicle: alkali diluted with saline 103 % of control | dose: 75.0 mg/kg/injection, schedule: Q01DX001 (ip), vehicle: other 108 % of control | dose: 150.0 mg/kg/injection, schedule: Q01DX001 (ip), vehicle: alkali diluted with saline 98 % of control | dose: 150.0 mg/kg/injection, schedule: Q01DX001 (ip), vehicle: other 105 % of control | dose: 300.0 mg/kg/injection, schedule: Q01DX001 (ip), vehicle: alkali diluted with saline 108 % of control | dose: 300.0 mg/kg/injection, schedule: Q01DX001 (ip), vehicle: other 103 % of control

CCN1C=C/C(=C\C=C/c2cc[n+](CC)c3ccccc23)c2ccccc21
inactive: dose: 0.05 mg/kg/injection, schedule: Q01DX Z (ip), vehicle: methylcellulose (MC) 96 % of control | dose: 0.06 mg/kg/injection, schedule: Q01DX Z (ip), vehicle: methylcellulose (MC) 106 % of control and 121 % of control | dose: 0.08 mg/kg/injection, schedule: Q01DX Z (ip), vehicle: methylcellulose (MC) 104 % of control | dose: 0.1 mg/kg/injection, schedule: Q01DX Z (ip), vehicle: methylcellulose (MC) 107 % of control | dose: 0.11 mg/kg/injection, schedule: Q01DX Z (ip), vehicle: methylcellulose (MC) 121 % of control | dose: 0.15 mg/kg/injection, schedule: Q01DX Z (ip), vehicle: methylcellulose (MC) 119 % of control | dose: 0.3 mg/kg/injection, schedule: Q01DX Z (ip), vehicle: methylcellulose (MC) 113 % of control and 120 % of control and 121 % of control | dose: 0.33 mg/kg/injection, schedule: Q01DX009 (ip), vehicle: saline with Tween-80 118 % of control | dose: 0.33 mg/kg/injection, schedule: Q03HX024 (ip), vehicle: saline with Tween-80 109 % of control | dose: 0.4 mg/kg/injection, schedule: Q01DX Z (ip), vehicle: methylcellulose (MC) 112 % of control | dose: 0.44 mg/kg/injection, schedule: Q01DX009 (ip), vehicle: saline with Tween-80 121 % of control | dose: 0.48 mg/kg/injection, schedule: Q01DX009 (ip), vehicle: saline with Tween-80 112 % of control | dose: 0.5 mg/kg/injection, schedule: Q01DX009 (ip), vehicle: saline 101 % of control | dose: 0.5 mg/kg/injection, schedule: Q04DX003 (ip), vehicle: saline sonified 107 % of control | dose: 0.67 mg/kg/injection, schedule: Q01DX001 (ip), vehicle: saline with Tween-80 105 % of control | dose: 0.67 mg/kg/injection, schedule: Q04DX003 (ip), vehicle: saline with Tween-80 105 % of control | dose: 0.7 mg/kg/injection, schedule: Q01DX Z (ip), vehicle: methylcellulose (MC) 96 % of control | dose: 0.74 mg/kg/injection, schedule: Q01DX009 (ip), vehicle: saline with Tween-80 114 % of control and 118 % of control | dose: 1.0 mg/kg/injection, schedule: Q01DX001 (ip), vehicle: saline with Tween-80 105 % of control | dose: 1.0 mg/kg/injection, schedule: Q01DX009 (ip), vehicle: saline 107 % of control | dose: 1.0 mg/kg/injection, schedule: Q01DX Z (ip), vehicle: methylcellulose (MC) 100 % of control | dose: 1.0 mg/kg/injection, schedule: Q04DX003 (ip), vehicle: saline sonified 110 % of control | dose: 1.1 mg/kg/injection, schedule: Q01DX009 (ip), vehicle: saline with Tween-80 105 % of control | dose: 1.5 mg/kg/injection, schedule: Q01DX001 (ip), vehicle: saline with Tween-80 112 % of control | dose: 1.5 mg/kg/injection, schedule: Q01DX Z (ip), vehicle: methylcellulose (MC) 108 % of control | dose: 1.5 mg/kg/injection, schedule: Q04DX003 (ip), vehicle: saline with Tween-80 113 % of control | dose: 2.0 mg/kg/injection, schedule: Q04DX003 (ip), vehicle: saline sonified 118 % of control | dose: 2.2 mg/kg/injection, schedule: Q01DX001 (ip), vehicle: saline with Tween-80 110 % of control | dose: 2.2 mg/kg/injection, schedule: Q04DX003 (ip), vehicle: saline with Tween-80 98 % of control | dose: 3.3 mg/kg/injection, schedule: Q01DX001 (ip), vehicle: saline with Tween-80 100 % of control and 88 % of control | dose: 7.4 mg/kg/injection, schedule: Q01DX001 (ip), vehicle: saline with Tween-80 105 % of control | dose: 67.0 micrograms/kg/injection, schedule: Q03HX024 (ip), vehicle: saline with Tween-80 102 % of control | dose: 100.0 micrograms/kg/injection, schedule: Q03HX024 (ip), vehicle: saline with Tween-80 101 % of control | dose: 150.0 micrograms/kg/injection, schedule: Q03HX024 (ip), vehicle: saline with Tween-80 104 % of control | dose: 220.0 micrograms/kg/injection, schedule: Q03HX024 (ip), vehicle: saline with Tween-80 97 % of control | dose: 330.0 micrograms/kg/injection, schedule: Q03HX024 (ip), vehicle: saline with Tween-80 102 % of control

CC(C)C(=O)c1ccc(-c2ccccc2)cc1
inactive: dose: 25.0 mg/kg/injection, schedule: Q01DX009 (ip), vehicle: water 101 % of control | dose: 50.0 mg/kg/injection, schedule: Q01DX009 (ip), vehicle: water 106 % of control | dose: 100.0 mg/kg/injection, schedule: Q01DX009 (ip), vehicle: water 98 % of control | dose: 200.0 mg/kg/injection, schedule: Q01DX009 (ip), vehicle: water 95 % of control | dose: 400.0 mg/kg/injection, schedule: Q01DX009 (ip), vehicle: water 93 % of control

c1ccc2c(c1)CCc1c-2[nH]c2ccccc12
inactive: dose: 100.0 mg/kg/injection, schedule: Q01DX009 (ip), vehicle: saline with Tween-80 96 % of control | dose: 200.0 mg/kg/injection, schedule: Q01DX009 (ip), vehicle: saline with Tween-80 94 % of control

CN(C)CCCCl
inactive: dose: 25.0 mg/kg/injection, schedule: Q01DX Z (ip), vehicle: other 102 % of control | dose: 50.0 mg/kg/injection, schedule: Q01DX009 (ip), vehicle: saline 90 % of control | dose: 50.0 mg/kg/injection, schedule: Q01DX Z (ip), vehicle: other 102 % of control | dose: 75.0 mg/kg/injection, schedule: Q04DX003 (ip), vehicle: saline 101 % of control | dose: 100.0 mg/kg/injection, schedule: Q01DX Z (ip), vehicle: other 92 % of control | dose: 150.0 mg/kg/injection, schedule: Q04DX003 (ip), vehicle: saline 93 % of control

CCOc1ccc(-n2c(=O)c(N=Nc3ccc(Cl)cc3)c(O)n(-c3ccc(C)cc3)c2=S)cc1
inactive: dose: 100.0 mg/kg/injection, schedule: Q01DX001 (ip), vehicle: Klucel (hydroxypropylcellulose) (HPC) 100 % of control | dose: 200.0 mg/kg/injection, schedule: Q01DX001 (ip), vehicle: Klucel (hydroxypropylcellulose) (HPC) 107 % of control | dose: 400.0 mg/kg/injection, schedule: Q01DX001 (ip), vehicle: Klucel (hydroxypropylcellulose) (HPC) 100 % of control

C/C=C/c1ccc(OC)cc1
inactive: dose: 100.0 mg/kg/injection, schedule: Q04DX002 (ip), vehicle: saline 104 % of control | dose: 200.0 mg/kg/injection, schedule: Q04DX002 (ip), vehicle: saline 104 % of control | dose: 400.0 mg/kg/injection, schedule: Q04DX002 (ip), vehicle: saline 97 % of control
